Laboratory results as given in US7517901B2, “p38 MAP kinase inhibitors and methods for using the same” (Roche Palo Alto LLC, priority 2005, dated 2009).

Legend:
p38 MAP kinase = target: T1, p38 MAP kinase (Homo sapiens, UniProt Q16539); assay: p38 (MAP) kinase in vitro assay (transfer of γ-33P from ATP to Myelin Basic Protein); type: biochemical; settings: phosphorylated recombinant p38 MAP kinase, MBP substrate, γ-33P-ATP, 30° C.
T1 construct: made in house; host or cells: E. coli (co-expressed with SEK-1 and MEKK)
T1 sequence (Q16539 whole entry): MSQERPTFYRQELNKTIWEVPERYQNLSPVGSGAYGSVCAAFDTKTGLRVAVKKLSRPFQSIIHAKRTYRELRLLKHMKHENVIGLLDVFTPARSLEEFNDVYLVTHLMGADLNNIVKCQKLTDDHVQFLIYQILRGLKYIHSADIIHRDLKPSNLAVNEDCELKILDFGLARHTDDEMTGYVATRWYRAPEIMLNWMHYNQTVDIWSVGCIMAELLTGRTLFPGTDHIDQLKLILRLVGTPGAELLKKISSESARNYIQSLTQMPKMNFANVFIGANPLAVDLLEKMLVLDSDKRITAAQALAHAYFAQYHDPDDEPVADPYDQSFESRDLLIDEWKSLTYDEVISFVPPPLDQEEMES
Protocol: This example illustrates a p38 (MAP) kinase in vitro assay useful for evaluating the compounds of the invention.
The p38 MAP kinase inhibitory activity of compounds of this invention in vitro was determined by measuring the transfer of the γ-phosphate from γ-^33P-ATP by p-38 kinase to Myelin Basic Protein (MBP), using a minor modification of the method described in Ahn, et al., J. Biol. Chem. 266:4220-4227 (1991).
The phosphorylated form of the recombinant p38 MAP kinase was co-expressed with SEK-1 and MEKK in E. Coli (see, Khokhlatchev, et al., J. Biol. Chem. 272:11057-11062 (1997)) and then purified by affinity chromatography using a Nickel column.
The phosphorylated p38 MAP kinase was diluted in kinase buffer (20 mM 3-(N-morpholino)propanesulfonic acid, pH 7.2, 25 mM β-glycerol phosphate, 5 mM ethylene glycol-bis(beta-aminoethyl ether)-N,N,N′,N′-tetraacetic acid, 1 mM sodium ortho-vanadate, 1 mM dithiothreitol, 40 mM magnesium chloride). Test compound dissolved in DMSO or only DMSO (control) was added and the samples were incubated for 10 min at 30° C. The kinase reaction was initiated by the addition of a substrate cocktail containing MBP and γ-^33P-ATP. […] The phosphorylated MBP was then separated from the residual γ-^33P-ATP using a phosphocellulose membrane (Millipore, Bedford, Mass.) and quantitated using a scintillation counter (Packard, Meriden, Conn.).

| Compound | melting point [°C] | IC50 (p38 MAP kinase) [nM] |
| --- | --- | --- |
| O=S(=O)(Nc1ccc2c(-c3ccccc3Cl)n[nH]c2c1)c1cccc(Cl)c1 [Compound 12, 3-Chloro-N-[3-(2-chloro-phenyl)-1H-indazol-6-yl]-benzenesulfonamide] | 187 to 189 | – |
| O=S(=O)(Nc1ccc2c(-c3ccccc3Cl)n[nH]c2c1)c1cccc(Cl)c1F [Compound 46, 3-Chloro-N-[3-(2-chloro-phenyl)-1H-indazol-6-yl]-2-fluoro-benzenesulfonamide] | – | ~20 |
